Source: patent US11422132B2, “Peptides and uses thereof for diagnosing and treating myasthenia gravis” (The Regents of the University of California, priority 2016, dated 2022)

How the values were obtained:
Type in all cases: binding, rat
mAb 35 [1] = assay: Western blot of peptide-IChBD fusion proteins probed with mAb 35; design: key to mAb 35, fold-change in binding relative to Torpedo 39MIR: ‘—’ denotes no binding; settings: for mAb 35 binding, result in words: Western blot; for mAb 35 binding relative to binding to the Torpedo 39MIR: FIG. 5 Western blots, Torpedo 39MIR single mutants; for mAb 35, fold-change in binding relative to Torpedo 39MIR: Table 1, Western blot of FIG. 5, Torpedo 39MIR single mutants
Procedure: (§1) Chitin beads adsorbed with peptide-IChBD fusion proteins were run on an SDS-PAGE gel and transferred to a nitrocellulose membrane and assayed with the four mAbs.
(§2) Chitin beads adsorbed with peptide-IChBD fusion proteins were run on an SDS-PAGE gel and transferred to a nitrocellulose membrane and assayed with the five mAbs.
(§3) To explore the effects of individual amino acid substitutions between the Torpedo and the human AChR MIR mimics, eight peptides were prepared, each with an amino acid substituted from the human sequence into the Torpedo sequence. The single amino acid substitutions in the Torpedo MIR were: N10K (SEQ ID NO:11), L12F (SEQ ID NO:12), R66K (SEQ ID NO:13), A70D (SEQ ID NO:14), I75V (SEQ ID NO:15), R79H (SEQ ID NO:16), D111Q (SEQ ID NO:17), and K115H (SEQ ID NO:18).

mAb 132A [2] = assay: Western blot of peptide-IChBD fusion proteins probed with mAb 132A; settings: for mAb 132A binding, result in words: Western blot; for mAb 132A binding relative to binding to the Torpedo 39MIR: FIG. 5 Western blots, Torpedo 39MIR single mutants; for mAb 132A, fold-change in binding relative to Torpedo 39MIR: Table 1, Western blot of FIG. 5, Torpedo 39MIR single mutants
Procedure: as §1, §2, §3

mAb 198 = assay: Western blot of peptide-IChBD fusion proteins probed with mAb 198; settings: for mAb 198 binding, result in words: Western blot; for mAb 198 binding compared to its binding to the human 39MIR: human 39MIR mutants, relative to human 39MIR; for mAb 198 binding relative to Torpedo 39MIR: FIG. 5 Western blots, Torpedo 39MIR single mutants
Excerpt: as §1, §2
The Torpedo (SEQ ID NO:9) and human (SEQ ID NO:8) 39MIRs were made by joining the α(1-12), α(65-79), and α(110-115) segments of their respective a subunits with GS linkers. These two MIR mimics were expressed in E. coli as fusion proteins with an IChBD tag to permit peptide collection on chitin beads. These two peptides differ from each other by eight amino acids (FIG. 2). Both mimics were probed with mAb 198. mAb 198, which was derived from rats that had been immunized with human muscle AChR, is a MIR-directed mAb that binds mammalian as well as Torpedo MIR (13,21). It was also able to passively transfer EAMG to rats and binds to both native assembled AChR and to α-subunit fragments in Western blots (22,23). mAb 198 binds to the Torpedo and human MIR peptide mimics in Western blots (FIG. 3). However, mAb 198 binds to the Torpedo mimic about 50 times more strongly than to the human MIR mimic (FIG. 3).
as §3

mAb 35 [3] = assay: Western blot of peptide-IChBD fusion proteins probed with mAb 35; design: key to mAb 35, fold-change in binding relative to Torpedo 39MIR: ‘—’ denotes no binding; settings: for mAb 35 binding compared to the Torpedo 39MIR peptide: single point mutated human 39MIR peptides
mAb 132A [4] = assay: Western blot of peptide-IChBD fusion proteins probed with mAb 132A; design: key to mAb 132A, fold-change in binding relative to Torpedo 39MIR: ‘—’ denotes no binding
mAb 334 = assay: Western blot of peptide-IChBD fusion proteins probed with mAb 334; settings: for mAb 334 binding relative to Torpedo 39MIR: FIG. 5 Western blots, Torpedo 39MIR single mutants; for mAb 334, fold-change in binding relative to Torpedo 39MIR: Table 1, Western blot of FIG. 5, Torpedo 39MIR single mutants
Procedure: as §2, §3

[5] = Table 2, Western blot of FIG. 7, human 39MIR multiple mutants
[6] = Table 3, single-substitution human 39MIR mutants
[7] = Table 1, Western blot of FIG. 5, Torpedo 39MIR single mutants

Sequence: SEHETRLVAKLFGGGSLKWNPDDYGGIKKIHGSLDYTGH (synthetic main immunogenic region (MIR) peptide) [V75I/Q111D, Human MIR double mutant (V75I/Q111D)]
- mAb 35 binding, result in words (mAb 35 [1]): restored binding
- mAb 132A binding, result in words (mAb 132A [2]): restored binding
- mAb 198, fold-change in binding relative to Torpedo 39MIR (mAb 198; [5]): 2.71 fold-change
- mAb 198 binding, result in words (mAb 198): restored binding
- mAb 35, fold-change in binding relative to Torpedo 39MIR (mAb 35 [3]; [5]): 0.92 fold-change
- mAb 132A, fold-change in binding relative to Torpedo 39MIR (mAb 132A [4]; [5]): 3.34 fold-change

Sequence: SEHETRLVAKLFGGGSLKWNPDDYGGVKKIHGSLDYTGH [Q111D] (synthetic main immunogenic region (MIR) peptide) [Mutant Q111D, Human 39MIR single mutant (Q111D)]
- mAb 35 binding, result in words (mAb 35 [1]): restored mAb 35 binding
- mAb 198, fold-change in binding relative to Torpedo 39MIR (mAb 198; [6]): 0.59 fold-change
- mAb 198 binding compared to its binding to the human 39MIR (mAb 198): 35.7 ×
- mAb 35, fold-change in binding relative to Torpedo 39MIR (mAb 35 [3]; [6]): 0.06 fold-change
- mAb 35 binding compared to the Torpedo 39MIR peptide (mAb 35 [3]): 0.06
- mAb 132A, fold-change in binding relative to Torpedo 39MIR (mAb 132A [4]; [6]): —

Sequence: SEHETRLVANLFGGGSLKWNPDDYGGVKKIHGSLQYTGH (synthetic main immunogenic region (MIR) peptide) [Mutant K10N, Human 39MIR single mutant (K10N)]
- mAb 35 binding, result in words (mAb 35 [1]): restored mAb 35 binding
- mAb 198, fold-change in binding relative to Torpedo 39MIR (mAb 198; [6]): 0.23 fold-change
- mAb 198 binding compared to its binding to the human 39MIR (mAb 198): 13 ×
- mAb 35, fold-change in binding relative to Torpedo 39MIR (mAb 35 [3]; [6]): 0.01 fold-change
- mAb 35 binding compared to the Torpedo 39MIR peptide (mAb 35 [3]): 0.01
- mAb 132A, fold-change in binding relative to Torpedo 39MIR (mAb 132A [4]; [6]): —

Sequence: SEHETRLVANLFGGGSLKWNPDDYGGIKKIHGSLQYTGH (synthetic main immunogenic region (MIR) peptide) [K10N/V75I, Human 39MIR double mutant (K10N/V75I)]
- mAb 35 binding, result in words (mAb 35 [1]): restored binding
- mAb 132A binding, result in words (mAb 132A [2]): restored binding
- mAb 198, fold-change in binding relative to Torpedo 39MIR (mAb 198; [5]): 1.79 fold-change
- mAb 198 binding, result in words (mAb 198): restored binding
- mAb 35, fold-change in binding relative to Torpedo 39MIR (mAb 35 [3]; [5]): 1.10 fold-change
- mAb 132A, fold-change in binding relative to Torpedo 39MIR (mAb 132A [4]; [5]): 1.25 fold-change

Sequence: SEHETRLVAKLFGGGSLKWNPDDYGGIKKIHGSLQYTGH (synthetic main immunogenic region (MIR) peptide) [Mutant V75I, Human 39MIR single mutant (V75I)]
- mAb 35 binding, result in words (mAb 35 [1]): restored mAb 35 binding
- mAb 198, fold-change in binding relative to Torpedo 39MIR (mAb 198; [6]): 0.65 fold-change
- mAb 198 binding compared to its binding to the human 39MIR (mAb 198): 40 ×
- mAb 35, fold-change in binding relative to Torpedo 39MIR (mAb 35 [3]; [6]): 0.03 fold-change
- mAb 35 binding compared to the Torpedo 39MIR peptide (mAb 35 [3]): 0.03
- mAb 132A, fold-change in binding relative to Torpedo 39MIR (mAb 132A [4]; [6]): —

Sequence: SEHETRLVAKLFGGGSLKWNPADYGGVKKIHGSLQYTGH (synthetic main immunogenic region (MIR) peptide) [Mutant D70A, Human 39MIR single mutant (D70A)]
- mAb 35 binding, result in words (mAb 35 [1]): failed to restore mAb 35 binding
- mAb 198, fold-change in binding relative to Torpedo 39MIR (mAb 198; [6]): 0.02 fold-change
- mAb 198 binding, result in words (mAb 198): comparable to binding to human 39MIR
- mAb 35, fold-change in binding relative to Torpedo 39MIR (mAb 35 [3]; [6]): —
- mAb 132A, fold-change in binding relative to Torpedo 39MIR (mAb 132A [4]; [6]): —

Sequence: SEHETRLVANLFGGGSLKWNPDDYGGVKKIHGSLDYTGH (synthetic main immunogenic region (MIR) peptide) [K10N/Q111D, Human 39MIR double mutant (K10N/Q111D)]
- mAb 35 binding, result in words (mAb 35 [1]): restored binding
- mAb 132A binding, result in words (mAb 132A [2]): restored binding
- mAb 198, fold-change in binding relative to Torpedo 39MIR (mAb 198; [5]): 1.19 fold-change
- mAb 198 binding, result in words (mAb 198): restored binding
- mAb 35, fold-change in binding relative to Torpedo 39MIR (mAb 35 [3]; [5]): 2.31 fold-change
- mAb 132A, fold-change in binding relative to Torpedo 39MIR (mAb 132A [4]; [5]): 1.07 fold-change

Sequence: SEHETRLVAKLLGGGSLRWNPADYGGIKKIRGSLDYTGK (synthetic main immunogenic region (MIR) peptide) [Mutant N10K, Torpedo 39MIR single mutant (N10K)]
- mAb 35 binding relative to binding to the Torpedo 39MIR (mAb 35 [1]): 0.29 ×
- mAb 35, fold-change in binding relative to Torpedo 39MIR (mAb 35 [1]): 0.29 fold-change
- mAb 334 binding relative to Torpedo 39MIR (mAb 334): 0.59 ×
- mAb 334, fold-change in binding relative to Torpedo 39MIR (mAb 334): 0.59 fold-change
- mAb 132A binding relative to binding to the Torpedo 39MIR (mAb 132A [2]): 0.03 ×
- mAb 132A, fold-change in binding relative to Torpedo 39MIR (mAb 132A [2]): 0.03 fold-change
- mAb 198 binding relative to Torpedo 39MIR (mAb 198): 0.82 ×
- mAb 198, fold-change in binding relative to Torpedo 39MIR (mAb 198; [7]): 0.82 fold-change

Sequence: SEHETRLVANLLGGGSLRWNPDDYGGIKKIRGSLDYTGK (synthetic main immunogenic region (MIR) peptide) [Mutant A70D, Torpedo 39MIR single mutant (A70D)]
- mAb 35 binding relative to binding to the Torpedo 39MIR (mAb 35 [1]): 0.93 ×
- mAb 35, fold-change in binding relative to Torpedo 39MIR (mAb 35 [1]): 0.93 fold-change
- mAb 334 binding relative to Torpedo 39MIR (mAb 334): 1.04 ×
- mAb 334, fold-change in binding relative to Torpedo 39MIR (mAb 334): 1.04 fold-change
- mAb 132A binding relative to binding to the Torpedo 39MIR (mAb 132A [2]): 0.20 ×
- mAb 132A, fold-change in binding relative to Torpedo 39MIR (mAb 132A [2]): 0.20 fold-change
- mAb 198, fold-change in binding relative to Torpedo 39MIR (mAb 198; [7]): 1.08 fold-change

Sequence: SEHETRLVANLFGGGSLKWNPADYGGVKKIHGSLQYTGH (synthetic main immunogenic region (MIR) peptide) [K10N/D70A, Human 39MIR double mutant (K10N/D70A)]
- mAb 35 binding, result in words (mAb 35 [1]): restored binding
- mAb 132A binding, result in words (mAb 132A [2]): restored binding
- mAb 198, fold-change in binding relative to Torpedo 39MIR (mAb 198; [5]): 0.72 fold-change
- mAb 198 binding, result in words (mAb 198): restored binding
- mAb 35, fold-change in binding relative to Torpedo 39MIR (mAb 35 [3]; [5]): 0.31 fold-change
- mAb 132A, fold-change in binding relative to Torpedo 39MIR (mAb 132A [4]; [5]): 0.16 fold-change

Sequence: SEHETRLVANLLGGGSLRWNPADYGGVKKIRGSLDYTGK (synthetic main immunogenic region (MIR) peptide) [Mutant I75V, Torpedo 39MIR single mutant (I75V)]
- mAb 35, fold-change in binding relative to Torpedo 39MIR (mAb 35 [1]): —
- mAb 35 binding, result in words (mAb 35 [1]): did not bind
- mAb 334 binding relative to Torpedo 39MIR (mAb 334): 0.03 ×
- mAb 334, fold-change in binding relative to Torpedo 39MIR (mAb 334): 0.03 fold-change
- mAb 132A binding relative to binding to the Torpedo 39MIR (mAb 132A [2]): 0.07 ×
- mAb 132A, fold-change in binding relative to Torpedo 39MIR (mAb 132A [2]): 0.06 fold-change
- mAb 198 binding relative to Torpedo 39MIR (mAb 198): 0.16 ×
- mAb 198, fold-change in binding relative to Torpedo 39MIR (mAb 198; [7]): 0.16 fold-change
